Data reported in paper PMC3034214, “Inhibition of Escherichia coli glycosyltransferase MurG and Mycobacterium tuberculosis Gal transferase by uridine-linked transition state mimics” (Bioorganic & Medicinal Chemistry, 2010).

Key:
E. coli = experiment: Antibacterial testing, growth in LB in 96-well plates (OD 595 nm); format: cell-based, Escherichia coli; details: E. coli BL21
Micrococcus luteus = experiment: as above; details: read-out: Growth inhibition of M. luteus
Procedure: (§1) The following procedure was performed using P. putida (ATCC 33015), M. luteus (ATCC 13513), E. coli BL21 and B. subtilis W23. A single colony of the bacterial strain was picked from an LB agar plate and grown in 10 ml of sterile LB medium overnight at 37 °C. 1 ml of this culture was then used to inoculate 50 ml of sterile LB medium at 2%. Hundred microlitres of this 2% culture was pipetted into each well of a 96-well plate. Hundred microlitres of sterile water or sterile aqueous inhibitor solution (200 μg/ml or 1 mg/ml) were then pipetted into each well and the 96-well plates were incubated at 37 °C. Bacterial growth was monitored by measuring the OD at 595 nm at 3, 6 and 24 h.

E. coli MurG = E. coli MurG (Escherichia coli, UniProt P17443); experiment: Coupled radiochemical MraY/MurG assay ([3H]-UDPGlcNAc incorporation into lipid intermediate II); details: for inhibition at 1000 µM: read-out: Percentage inhibition of E. coli MurG
Sequence of E. coli MurG (P17443 whole entry): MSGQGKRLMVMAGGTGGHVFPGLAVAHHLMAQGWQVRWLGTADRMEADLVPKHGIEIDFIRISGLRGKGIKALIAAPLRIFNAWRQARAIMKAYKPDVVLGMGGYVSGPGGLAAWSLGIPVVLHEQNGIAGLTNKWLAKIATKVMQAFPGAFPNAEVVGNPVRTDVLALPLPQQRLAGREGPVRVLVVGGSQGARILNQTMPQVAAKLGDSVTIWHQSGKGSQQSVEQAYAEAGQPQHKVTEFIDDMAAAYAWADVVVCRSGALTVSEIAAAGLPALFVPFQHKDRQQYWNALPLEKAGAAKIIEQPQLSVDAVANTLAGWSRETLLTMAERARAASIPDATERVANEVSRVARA

Pseudomonas putida = experiment: Antibacterial testing, growth in LB in 96-well plates (OD 595 nm); details: ATCC 33015
Procedure: as §1

B. subtilis = experiment: as above; details: B. subtilis W23
Procedure: as §1

[1] = tested on: Mycobacterium tuberculosis galactosyltransferase GlfT2; experiment: Galactosyltransferase assay ([14C]Gal incorporation into Galf(β1→6)Galf-O-C8 acceptor, membranes and cell wall fraction); format: biochemical; details: read-out: Percentage inhibition of Mt GTase (Mycobacterium tuberculosis galactosyl transferase)
Sequence of Mycobacterium tuberculosis galactosyltransferase GlfT2 (A0R628 whole entry): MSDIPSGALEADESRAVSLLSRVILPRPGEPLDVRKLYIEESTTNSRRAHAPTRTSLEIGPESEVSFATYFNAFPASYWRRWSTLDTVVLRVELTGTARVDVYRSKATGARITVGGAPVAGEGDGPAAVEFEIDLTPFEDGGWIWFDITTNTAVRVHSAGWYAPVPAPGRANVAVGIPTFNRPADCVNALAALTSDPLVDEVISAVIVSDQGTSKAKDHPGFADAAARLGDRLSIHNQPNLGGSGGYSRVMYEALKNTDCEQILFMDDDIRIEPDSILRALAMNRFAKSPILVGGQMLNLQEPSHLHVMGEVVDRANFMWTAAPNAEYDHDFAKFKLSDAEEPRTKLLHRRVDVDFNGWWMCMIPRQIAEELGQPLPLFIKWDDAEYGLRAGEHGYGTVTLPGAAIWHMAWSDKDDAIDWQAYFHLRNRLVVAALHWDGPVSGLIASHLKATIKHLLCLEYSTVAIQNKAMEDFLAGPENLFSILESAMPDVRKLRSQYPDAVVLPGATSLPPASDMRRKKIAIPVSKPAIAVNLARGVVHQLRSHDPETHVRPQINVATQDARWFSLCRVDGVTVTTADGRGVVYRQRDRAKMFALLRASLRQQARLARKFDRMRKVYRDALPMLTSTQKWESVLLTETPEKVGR
Excerpt: The arabinogalactan cell wall polymer of M. tuberculosis is biosynthesised through the action of a series of glycosyltransferases,[16] several of which use UDP-sugar substrates, and therefore might be inhibited by this class of compound. We have characterised a UDP-galactose-dependent galactosyltransferase activity GlfT2, which can be assayed using specific neoglycolipid acceptors in the presence of membranes and Galf(β1→6)Galf-O-C8 resulting in excellent [[14]C]Galf incorporation from UDP-[^14C]Galp, following endogenous conversion to UDP-[^14C]Galf and transferase activity (Fig. 4).[17] […] The complete chemical characterisation of the enzymatically synthesised products along with the identity of the galactosyltransferase gene product were previously reported.[17]
Liquid cultures of Mycobacterium smegmatis mc^2155 were grown at 37 °C in Luria Bertoni (LB) broth medium (Difco) supplemented with 0.05% Tween 80, biomass harvested, washed with phosphate buffered saline (PBS) and stored at −20 °C until further use. M. smegmatis cells (10 g wet weight) were washed and re-suspended in 30 ml of buffer A, containing 50 mM MOPS (adjusted to pH 8.0 with KOH), 5 mM β-mercaptoethanol and 10 mM MgCl2 at 4 °C and subjected to probe sonication (Soniprep 150, MSE Sanyo Gallenkamp, Crawley, Sussex, UK; 1 cm probe) for a total time of 10 min in 60 s pulses and 90 s cooling intervals between pulses. The sonicate centrifuged at 27,000g for 60 min at 4 °C. The resulting mycobacterial cell wall pellets were re-suspended in buffer A. Percoll (Pharmacia, Sweden) was added to yield a 60% suspension and centrifuged at 27,000g for 1 h at 4 °C. The upper, particulate diffuse cell wall enzymatically active (P60) band was collected and washed three times with buffer A and re-suspended in buffer A at a final protein concentration of 10 mg/ml. Membrane fractions were obtained by centrifugation of the 27,000g supernatant at 100,000g for 1 h at 4 °C. The supernatant was carefully removed and the membranes gently re-suspended in buffer A at a protein concentration of 20 mg/ml. Protein concentrations were determined using the BCA Protein Assay Reagent kit (Pierce Europe, Oud-Beijerland, Netherlands).
The reaction mixtures were then incubated at 37 °C for 1 h. A CHCl3/CH3OH (1:1, 533 μl) solution was then added to the incubation tubes and the entire contents centrifuged at 18,000g. The supernatant was recovered and dried under a stream of argon and re-suspended in C2H5OH/H2O (1:1, 1 ml) and loaded onto a pre-equilibrated (C2H5OH/H2O [1:1]) 1 ml Whatmann strong anion exchange (SAX) cartridge which was washed with 3 ml of ethanol. The eluate was dried and the resulting products partitioned between the two phases arising from a mixture of n-butanol (3 ml) and H20 (3 ml). The resulting organic phase was recovered following centrifugation at 3,500g and the aqueous phase was again extracted twice with 3 ml of n-butanol saturated water, the pooled extracts were back-washed twice with water saturated with n-butanol (3 ml). The n-butanol–saturated water fraction was dried and re-suspended in 200 μl of n-butanol. The total cpm of radiolabeled material extractable into the n-butanol phase was measured by scintillation counting using 10% of the labelled material and 10 ml of EcoScintA (National Diagnostics, Atlanta). The incorporation of [^14C]Gal was determined by subtracting counts present in control assays (incubation of the reaction components in the absence of the compounds).

Compound | inhibition at 1000 µM (E. coli MurG) [%] | inhibition at 1000 µM [1] [%] | further results
COc1ccccc1[C@H]1N[C@@](C)(C(=O)NCC(=O)NC[C@H]2O[C@@H](n3ccc(=O)[nH]c3=O)[C@H](O)[C@@H]2O)[C@H]2C(=O)N(c3ccccc3)C(=O)[C@@H]12 (mixture of isomers) [13b] | 85 | 0 | Antibacterial activity against E. coli (in words) (E. coli): no effects; inhibition at 100 µg/mL (Micrococcus luteus): 50%; IC50 (E. coli MurG): 0.4 mM; Antibacterial activity against Pseudomonas putida (in words) (Pseudomonas putida): no effects; Antibacterial activity against B. subtilis (in words) (B. subtilis): no effects
COc1cccc([C@H]2N[C@@](C)(C(=O)NCC(=O)NC[C@H]3O[C@@H](n4ccc(=O)[nH]c4=O)[C@H](O)[C@@H]3O)[C@H]3C(=O)N(c4ccccc4)C(=O)[C@@H]23)c1OC (mixture of isomers) [13c] | 0 | 0 | 
C[C@@]1(C(=O)NCC(=O)NC[C@H]2O[C@@H](n3ccc(=O)[nH]c3=O)[C@H](O)[C@@H]2O)N[C@H](C(O)CO)[C@@H]2C(=O)N(c3ccccc3)C(=O)[C@@H]21 (mixture of isomers) [13e] | 0 | 0 | 
COC(=O)[C@H]1[C@@H](c2ccccc2)N[C@@](C)(C(=O)NCC(=O)NC[C@H]2O[C@@H](n3ccc(=O)[nH]c3=O)[C@H](O)[C@@H]2O)[C@@H]1C(=O)OC (mixture of isomers) [14a] | 0 |  | 
COC(=O)[C@H]1[C@@H](c2ccccc2OC)N[C@@](C)(C(=O)NCC(=O)NC[C@H]2O[C@@H](n3ccc(=O)[nH]c3=O)[C@H](O)[C@@H]2O)[C@@H]1C(=O)OC (mixture of isomers) [14b] | 32 | 0 | IC50 (E. coli MurG): > 5 mM
COC(=O)C1C(C(O)CO)NC2(C)C(=O)N(CC(=O)NCC3OC(n4ccc(=O)[nH]c4=O)C(O)C3O)C(=O)C12 (mixture of isomers) [15e] | 27 |  | IC50 (E. coli MurG): > 5 mM
COC(=O)[C@H]1[C@@H](c2ccccc2OC)N[C@@](C)(C(=O)N2CCC[C@H]2C(=O)NC[C@H]2O[C@@H](n3ccc(=O)[nH]c3=O)[C@H](O)[C@@H]2O)[C@H]1C(=O)OC (mixture of isomers) [20b] | 0 | 0 | 
COC(=O)[C@H]1[C@@H](c2ccccc2OC)N[C@@](C)(C(=O)N2CCC[C@H]2C(=O)NC[C@H]2O[C@@H](n3ccc(=O)[nH]c3=O)[C@H](O)[C@@H]2O)[C@@H]1C(=O)OC (mixture of isomers) [20c] | 22 | 0 | 
CCN1C(=O)C2[C@@H](C1=O)[C@@H](C(O)CO)N[C@@]2(C)C(=O)N1CCC[C@H]1C(=O)NC[C@H]1O[C@@H](n2ccc(=O)[nH]c2=O)[C@H](O)[C@@H]1O (mixture of isomers) [20d] | 0 | 0 | 
COc1ccccc1[C@H]1N[C@@](C)(COC(=O)CCC(=O)OC[C@H]2O[C@@H](n3ccc(=O)[nH]c3=O)[C@H](O)[C@@H]2O)[C@H]2C(=O)N(c3ccccc3)C(=O)[C@@H]12 (mixture of isomers) [compound 25] | 15 | 0 | Inhibition of / binding to MurG (in words) (E. coli MurG): weak activity
COC(=O)C1C(c2ccc(OC)c(OC)c2)NC2(C)C(=O)N(CC(=O)NCC3OC(n4ccc(=O)[nH]c4=O)C(O)C3O)C(=O)C12 (centres unmarked) [16d] | 26 | 0 | IC50 (E. coli MurG): 4 mM
COc1ccccc1[C@@H]1[C@@H]2C(=O)N(c3ccccc3)C(=O)[C@@H]2[C@H](C(=O)N(C)CC(=O)NC[C@H]2O[C@@H](n3ccc(=O)[nH]c3=O)[C@H](O)[C@@H]2O)N1C [compound 19] | 31 |  | Inhibition of / binding to MurG (in words) (E. coli MurG): did bind to MurG
COc1ccccc1[C@H]1N[C@@](C)(COC(=O)CC(=O)OC[C@H]2O[C@@H](n3ccc(=O)[nH]c3=O)[C@H](O)[C@@H]2O)[C@H]2C(=O)N(c3ccccc3)C(=O)[C@@H]12 [compound 24] | 17 | 0 | Inhibition of / binding to MurG (in words) (E. coli MurG): weak activity
ramoplanin [reference compound] |  |  | Inhibition of MurG (E. coli MurG; 20 μM ramoplanin): > 90%
